Laboratory results published in PubChem BioAssay (NCI).
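Assay format: 96-well plates, 48-hour exposure. TGI denotes the concentration required for complete inhibition of growth.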

Legend:
Assay in all cases: NCI tumour cell line growth inhibition, 48 h
[1] = test system: 786-0 renal
[2] = test system: A498 renal
[3] = test system: A549 NSCLC
[4] = test system: ACHN renal
[5] = test system: BT-549 breast
[6] = test system: CAKI-1 renal
[7] = test system: CCRF-CEM leukemia
[8] = test system: COLO 205 colon
[9] = test system: DU-145 prostate
[10] = test system: EKVX NSCLC
[11] = test system: HCC-2998 colon
[12] = test system: HCT-116 colon
[13] = test system: HCT-15 colon
[14] = test system: HL-60(TB) leukemia
[15] = test system: HOP-62 NSCLC
[16] = test system: HOP-92 NSCLC
[17] = test system: HS 578T breast
[18] = test system: HT29 colon
[19] = test system: IGROV1 ovarian
[20] = test system: KM12 colon
[21] = test system: M14 melanoma
[22] = test system: MALME-3M melanoma
[23] = test system: MCF7 breast
[24] = test system: MDA-MB-231 breast
[25] = test system: MDA-MB-435
[26] = test system: MOLT-4 leukemia
[27] = test system: NCI-H226 lung
[28] = test system: NCI-H23 lung
[29] = test system: NCI-H522 lung
[30] = test system: NCI/ADR-RES ovarian
[31] = test system: OVCAR-3 ovarian
[32] = test system: OVCAR-4 ovarian
[33] = test system: OVCAR-5 ovarian
[34] = test system: OVCAR-8 ovarian
[35] = test system: PC-3 prostate
[36] = test system: RPMI-8226 leukemia
[37] = test system: RXF 393 renal
[38] = test system: SF-268 CNS
[39] = test system: SF-295 CNS
[40] = test system: SF-539 CNS
[41] = test system: SK-MEL-2 melanoma
[42] = test system: SK-MEL-28 melanoma
[43] = test system: SK-MEL-5 melanoma
[44] = test system: SK-OV-3 ovarian
[45] = test system: SN12C renal
[46] = test system: SNB-19 CNS
[47] = test system: SW-620 colon
[48] = test system: T-47D breast
[49] = test system: TK-10 renal
[50] = test system: U251 CNS
[51] = test system: UACC-257 melanoma
[52] = test system: UACC-62 melanoma
[53] = test system: UO-31 renal

Measured: TGI

CSc1nc(-c2ccccc2)[nH]c(=O)n1
> 100 µM: all assays above
